Assay results as given in PubChem BioAssay (NCI).
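Briefly, cells in 96-well plates were exposed to five compound concentrations for 48 h, and endpoints were estimated by linear interpolation. TGI marks complete inhibition of growth.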

Legend:
Experiment in all cases: NCI tumour cell line growth inhibition, 48 h
786-0 renal = test system: 786-0 renal
A498 renal = test system: A498 renal
A549 NSCLC = test system: A549 NSCLC
ACHN renal = test system: ACHN renal
BT-549 breast = test system: BT-549 breast
CAKI-1 renal = test system: CAKI-1 renal
CCRF-CEM leukemia = test system: CCRF-CEM leukemia
COLO 205 colon = test system: COLO 205 colon
DU-145 prostate = test system: DU-145 prostate
EKVX NSCLC = test system: EKVX NSCLC
HCC-2998 colon = test system: HCC-2998 colon
HCT-116 colon = test system: HCT-116 colon
HCT-15 colon = test system: HCT-15 colon
HL-60(TB) leukemia = test system: HL-60(TB) leukemia
HOP-62 NSCLC = test system: HOP-62 NSCLC
HOP-92 NSCLC = test system: HOP-92 NSCLC
HS 578T breast = test system: HS 578T breast
HT29 colon = test system: HT29 colon
K-562 leukemia = test system: K-562 leukemia
KM12 colon = test system: KM12 colon
LOX IMVI melanoma = test system: LOX IMVI melanoma
M14 melanoma = test system: M14 melanoma
MALME-3M melanoma = test system: MALME-3M melanoma
MCF7 breast = test system: MCF7 breast
MDA-MB-231 breast = test system: MDA-MB-231 breast
MDA-MB-435 = test system: MDA-MB-435
MDA-N = test system: MDA-N
MOLT-4 leukemia = test system: MOLT-4 leukemia
NCI-H226 lung = test system: NCI-H226 lung
NCI-H23 lung = test system: NCI-H23 lung
NCI-H460 lung = test system: NCI-H460 lung
NCI/ADR-RES ovarian = test system: NCI/ADR-RES ovarian
OVCAR-3 ovarian = test system: OVCAR-3 ovarian
OVCAR-4 ovarian = test system: OVCAR-4 ovarian
OVCAR-5 ovarian = test system: OVCAR-5 ovarian
OVCAR-8 ovarian = test system: OVCAR-8 ovarian
PC-3 prostate = test system: PC-3 prostate
RPMI-8226 leukemia = test system: RPMI-8226 leukemia
RXF 393 renal = test system: RXF 393 renal
SF-268 CNS = test system: SF-268 CNS
SF-295 CNS = test system: SF-295 CNS
SF-539 CNS = test system: SF-539 CNS
SK-MEL-2 melanoma = test system: SK-MEL-2 melanoma
SK-MEL-28 melanoma = test system: SK-MEL-28 melanoma
SK-MEL-5 melanoma = test system: SK-MEL-5 melanoma
SK-OV-3 ovarian = test system: SK-OV-3 ovarian
SN12C renal = test system: SN12C renal
SNB-19 CNS = test system: SNB-19 CNS
SNB-75 CNS = test system: SNB-75 CNS
SW-620 colon = test system: SW-620 colon
TK-10 renal = test system: TK-10 renal
U251 CNS = test system: U251 CNS
UACC-257 melanoma = test system: UACC-257 melanoma
UACC-62 melanoma = test system: UACC-62 melanoma
UO-31 renal = test system: UO-31 renal
IGROV1 ovarian = test system: IGROV1 ovarian
NCI-H522 lung = test system: NCI-H522 lung
SR leukemia = test system: SR leukemia
T-47D breast = test system: T-47D breast

## OC1CCN2Cc3ccccc3N=C12 (stereo not given)
786-0 renal
  TGI: > 100 µM
A498 renal
  TGI: > 100 µM
A549 NSCLC
  TGI: > 100 µM
ACHN renal
  TGI: > 100 µM
BT-549 breast
  TGI: > 100 µM
CAKI-1 renal
  TGI: > 100 µM
CCRF-CEM leukemia
  TGI: > 100 µM
COLO 205 colon
  TGI: > 100 µM
DU-145 prostate
  TGI: > 100 µM
EKVX NSCLC
  TGI: > 100 µM
HCC-2998 colon
  TGI: > 100 µM
HCT-116 colon
  TGI: > 100 µM
HCT-15 colon
  TGI: > 100 µM
HL-60(TB) leukemia
  TGI: > 100 µM
HOP-62 NSCLC
  TGI: > 100 µM
HOP-92 NSCLC
  TGI: > 100 µM
HS 578T breast
  TGI: > 100 µM
HT29 colon
  TGI: > 100 µM
K-562 leukemia
  TGI: > 100 µM
KM12 colon
  TGI: > 100 µM
LOX IMVI melanoma
  TGI: > 100 µM
M14 melanoma
  TGI: > 100 µM
MALME-3M melanoma
  TGI: > 100 µM
MCF7 breast
  TGI: > 100 µM
MDA-MB-231 breast
  TGI: > 100 µM
MDA-MB-435
  TGI: > 100 µM
MDA-N
  TGI: > 100 µM
MOLT-4 leukemia
  TGI: > 100 µM
NCI-H226 lung
  TGI: > 100 µM
NCI-H23 lung
  TGI: > 100 µM
NCI-H460 lung
  TGI: > 100 µM
NCI/ADR-RES ovarian
  TGI: > 100 µM
OVCAR-3 ovarian
  TGI: > 100 µM
OVCAR-4 ovarian
  TGI: > 100 µM
OVCAR-5 ovarian
  TGI: > 100 µM
OVCAR-8 ovarian
  TGI: > 100 µM
PC-3 prostate
  TGI: > 100 µM
RPMI-8226 leukemia
  TGI: > 100 µM
RXF 393 renal
  TGI: > 100 µM
SF-268 CNS
  TGI: > 100 µM
SF-295 CNS
  TGI: > 100 µM
SF-539 CNS
  TGI: > 100 µM
SK-MEL-2 melanoma
  TGI: > 100 µM
SK-MEL-28 melanoma
  TGI: > 100 µM
SK-MEL-5 melanoma
  TGI: > 100 µM
SK-OV-3 ovarian
  TGI: > 100 µM
SN12C renal
  TGI: > 100 µM
SNB-19 CNS
  TGI: > 100 µM
SNB-75 CNS
  TGI: > 100 µM
SW-620 colon
  TGI: > 100 µM
TK-10 renal
  TGI: > 100 µM
U251 CNS
  TGI: > 100 µM
UACC-257 melanoma
  TGI: > 100 µM
UACC-62 melanoma
  TGI: > 100 µM
UO-31 renal
  TGI: > 100 µM

## CCN(CC)c1c(-c2c(OC(C)C)c(=O)c2=O)c(=O)n2ccsc2c1OC(C)=O
786-0 renal
  TGI: > 100 µM
A498 renal
  TGI: > 100 µM
ACHN renal
  TGI: > 100 µM
BT-549 breast
  TGI: > 100 µM
CAKI-1 renal
  TGI: > 100 µM
CCRF-CEM leukemia
  TGI: > 100 µM
COLO 205 colon
  TGI: > 100 µM
DU-145 prostate
  TGI: > 100 µM
EKVX NSCLC
  TGI: > 100 µM
HCC-2998 colon
  TGI: > 100 µM
HCT-116 colon
  TGI: > 100 µM
HCT-15 colon
  TGI: > 100 µM
HL-60(TB) leukemia
  TGI: > 100 µM
HOP-62 NSCLC
  TGI: > 100 µM
HOP-92 NSCLC
  TGI: > 100 µM
HS 578T breast
  TGI: > 100 µM
HT29 colon
  TGI: > 100 µM
IGROV1 ovarian
  TGI: > 100 µM
K-562 leukemia
  TGI: > 100 µM
KM12 colon
  TGI: > 100 µM
LOX IMVI melanoma
  TGI: > 100 µM
M14 melanoma
  TGI: > 100 µM
MALME-3M melanoma
  TGI: > 100 µM
MDA-MB-231 breast
  TGI: > 100 µM
MDA-MB-435
  TGI: > 100 µM
MDA-N
  TGI: > 100 µM
MOLT-4 leukemia
  TGI: > 100 µM
NCI-H226 lung
  TGI: > 100 µM
NCI-H23 lung
  TGI: > 100 µM
NCI-H460 lung
  TGI: > 100 µM
NCI-H522 lung
  TGI: > 100 µM
NCI/ADR-RES ovarian
  TGI: > 100 µM
OVCAR-3 ovarian
  TGI: > 100 µM
OVCAR-4 ovarian
  TGI: > 100 µM
OVCAR-5 ovarian
  TGI: > 100 µM
OVCAR-8 ovarian
  TGI: > 100 µM
PC-3 prostate
  TGI: > 100 µM
RPMI-8226 leukemia
  TGI: > 100 µM
SF-268 CNS
  TGI: > 100 µM
SF-295 CNS
  TGI: > 100 µM
SK-MEL-2 melanoma
  TGI: > 100 µM
SK-MEL-28 melanoma
  TGI: > 100 µM
SK-MEL-5 melanoma
  TGI: > 100 µM
SK-OV-3 ovarian
  TGI: > 100 µM
SN12C renal
  TGI: > 100 µM
SNB-19 CNS
  TGI: > 100 µM
SNB-75 CNS
  TGI: > 100 µM
SR leukemia
  TGI: > 100 µM
SW-620 colon
  TGI: > 100 µM
TK-10 renal
  TGI: > 100 µM
U251 CNS
  TGI: > 100 µM
UACC-257 melanoma
  TGI: > 100 µM
UACC-62 melanoma
  TGI: > 100 µM
UO-31 renal
  TGI: > 100 µM

## C/C(=C\CCC1=CC(=O)OC1)CCC1C2C(=O)CC(C)[C@@]3(C)CC[C@]1(C)[C@@]23C (stereo not given in full)
786-0 renal
  TGI: > 10 µM
A549 NSCLC
  TGI: > 10 µM
CAKI-1 renal
  TGI: > 10 µM
CCRF-CEM leukemia
  TGI: > 10 µM
COLO 205 colon
  TGI: > 10 µM
DU-145 prostate
  TGI: > 10 µM
EKVX NSCLC
  TGI: > 10 µM
HCC-2998 colon
  TGI: > 10 µM
HCT-15 colon
  TGI: > 10 µM
HL-60(TB) leukemia
  TGI: > 10 µM
HOP-62 NSCLC
  TGI: > 10 µM
HT29 colon
  TGI: > 10 µM
IGROV1 ovarian
  TGI: > 10 µM
K-562 leukemia
  TGI: > 10 µM
KM12 colon
  TGI: > 10 µM
LOX IMVI melanoma
  TGI: > 10 µM
M14 melanoma
  TGI: > 10 µM
MALME-3M melanoma
  TGI: > 10 µM
MCF7 breast
  TGI: > 10 µM
MDA-MB-231 breast
  TGI: > 10 µM
MDA-N
  TGI: > 10 µM
MOLT-4 leukemia
  TGI: > 10 µM
NCI-H23 lung
  TGI: > 10 µM
OVCAR-8 ovarian
  TGI: > 10 µM
PC-3 prostate
  TGI: > 10 µM
RPMI-8226 leukemia
  TGI: > 10 µM
RXF 393 renal
  TGI: > 10 µM
SF-268 CNS
  TGI: > 10 µM
SF-295 CNS
  TGI: > 10 µM
SK-MEL-28 melanoma
  TGI: > 10 µM
SK-MEL-5 melanoma
  TGI: > 10 µM
SK-OV-3 ovarian
  TGI: > 10 µM
SN12C renal
  TGI: > 10 µM
SNB-75 CNS
  TGI: > 10 µM
SR leukemia
  TGI: > 10 µM
SW-620 colon
  TGI: > 10 µM
T-47D breast
  TGI: > 10 µM
TK-10 renal
  TGI: > 10 µM
UACC-257 melanoma
  TGI: > 10 µM
UACC-62 melanoma
  TGI: > 10 µM

## CC(NC(=O)c1ccc(Cl)c(Cl)c1)c1ccc(-c2ccccc2)cc1 (stereo not given)
786-0 renal
  TGI: 47.5 µM
A498 renal
  TGI: > 100 µM
A549 NSCLC
  TGI: 45.5 µM
ACHN renal
  TGI: > 100 µM
BT-549 breast
  TGI: > 100 µM
CAKI-1 renal
  TGI: > 100 µM
COLO 205 colon
  TGI: > 100 µM
DU-145 prostate
  TGI: 57.5 µM
EKVX NSCLC
  TGI: > 100 µM
HCC-2998 colon
  TGI: > 100 µM
HCT-116 colon
  TGI: > 100 µM
HCT-15 colon
  TGI: > 100 µM
HL-60(TB) leukemia
  TGI: > 100 µM
HOP-62 NSCLC
  TGI: 54.5 µM
HOP-92 NSCLC
  TGI: > 100 µM
HS 578T breast
  TGI: 65.1 µM
HT29 colon
  TGI: > 100 µM
IGROV1 ovarian
  TGI: > 100 µM
K-562 leukemia
  TGI: > 100 µM
KM12 colon
  TGI: > 100 µM
LOX IMVI melanoma
  TGI: > 100 µM
M14 melanoma
  TGI: > 100 µM
MALME-3M melanoma
  TGI: 49.1 µM
MCF7 breast
  TGI: > 100 µM
MDA-MB-231 breast
  TGI: > 100 µM
MDA-MB-435
  TGI: > 100 µM
MDA-N
  TGI: > 100 µM
NCI-H226 lung
  TGI: 78.7 µM
NCI-H23 lung
  TGI: > 100 µM
NCI-H460 lung
  TGI: > 100 µM
NCI-H522 lung
  TGI: > 100 µM
NCI/ADR-RES ovarian
  TGI: > 100 µM
OVCAR-3 ovarian
  TGI: 66.2 µM
OVCAR-4 ovarian
  TGI: 37.7 µM
OVCAR-5 ovarian
  TGI: > 100 µM
OVCAR-8 ovarian
  TGI: 82.5 µM
PC-3 prostate
  TGI: > 100 µM
RPMI-8226 leukemia
  TGI: > 100 µM
RXF 393 renal
  TGI: 28 µM
SF-268 CNS
  TGI: > 100 µM
SF-295 CNS
  TGI: > 100 µM
SF-539 CNS
  TGI: 42.9 µM
SK-MEL-2 melanoma
  TGI: > 100 µM
SK-MEL-28 melanoma
  TGI: > 100 µM
SK-MEL-5 melanoma
  TGI: > 100 µM
SK-OV-3 ovarian
  TGI: 90.4 µM
SN12C renal
  TGI: > 100 µM
SNB-19 CNS
  TGI: 46.7 µM
SNB-75 CNS
  TGI: 39.3 µM
SR leukemia
  TGI: 40.3 µM
SW-620 colon
  TGI: > 100 µM
TK-10 renal
  TGI: 68.7 µM
U251 CNS
  TGI: > 100 µM
UACC-257 melanoma
  TGI: > 100 µM
UACC-62 melanoma
  TGI: > 100 µM
UO-31 renal
  TGI: 29.4 µM
